# Test system: subjects with chronic ITP
# Assay: Combined 28-day and 6-month rollover studies of E5501: safety (TEAEs, serious TEAEs, thromboembolic events, neoplasms, liver toxicity, discontinuations)
# Type: in vivo, human
# From the text: Primary Endpoint: The primary endpoint was to assess the safety and tolerability to E5501, including AEs and clinical laboratory parameters, over the 6 additional months of treatment.
# In this way, safety data reflect each subject's complete duration of exposure to E5501 starting with lead-in the previous study and continuing into the current study.
# Following Protocol Amendment 4, the current study contained a flexible dose regimen; therefore, this study was considered to have an open-label, uncontrolled, single-arm design. […] This was the method used to assess safety. • Grouping method B was based on both treatment received and day 28 platelet response to study drug in Study the previous study. This was the method used for the analysis of efficacy for the FAS and the SE population.
# Overall Adverse Events. […] The primary focus is on summary statistics for the entire safety population and provides an overall safety profile for E5501. The summary statistics for each group, e.g., lower ⅓, middle ⅓ and upper ⅓ average daily dose levels, is secondary and provides further safety information across the 3 dose levels.
# [1] = Upper ⅓ dose (≧13.5-≦25.7 mg), N=20
# [2] = combined studies, E5501-treated subjects overall
# [3] = one subject, 5 mg/day, approximately 21 days after initiation, grade 2
# [4] = one subject, 20 mg/day, approximately 164 days after initiation, grade 3
compound,measurement,setting,value
"O=C(Nc1nc(-c2cc(Cl)cs2)c(N2CCN(C3CCCCC3)CC2)s1)c1cnc(N2CCC(C(=O)O)CC2)c(Cl)c1 [E5501, 1-(3-chloro-5-{[4-(4-chlorothiophen-2-yl)-5-(4-cyclohexylpiperazin-1-yl)thiazol-2-yl]carbamoyl}pyridine-2-yl)piperidine-4-carboxylic acid]","Dose interruption due to TEAE, % of subjects",[1],(10.0) %
same,"Dose interruption due to TEAE, n of subjects",[1],2
same,"Dyspnoea, % of subjects",[1],(5.0) %
same,"Dyspnoea, n of subjects",[1],1
same,"Ecchymosis, % of subjects",[1],(10.0) %
same,"Ecchymosis, n of subjects",[1],2
same,"Epistaxis, % of subjects",[1],(40.0) %
same,"Epistaxis, n of subjects",[1],8
same,"Fatigue, % of subjects",[1],(35.0) %
same,"Fatigue, n of subjects",[1],7
same,"Gingival bleeding, % of subjects",[1],(20.0) %
same,"Gingival bleeding, n of subjects",[1],4
same,"Headache, % of subjects",[1],(40.0) %
same,"Headache, n of subjects",[1],8
same,"Insomnia, % of subjects",[1],(5.0) %
same,"Insomnia, n of subjects",[1],1
same,"Migraine, % of subjects",[1],(10.0) %
same,"Migraine, n of subjects",[1],2
same,"Mouth haemorrhage, % of subjects",[1],(10.0) %
same,"Mouth haemorrhage, n of subjects",[1],2
same,"Nausea, % of subjects",[1],(20.0) %
same,"Nausea, n of subjects",[1],4
same,"Pain in extremity, % of subjects",[1],(10.0) %
same,"Pain in extremity, n of subjects",[1],2
same,"Petechiae, % of subjects",[1],(10.0) %
same,"Petechiae, n of subjects",[1],2
same,"Platelet count increased, % of subjects",[1],(10.0) %
same,"Platelet count increased, n of subjects",[1],2
same,"Serious TEAE Cerebrovascular accident, n (%) of subjects",[1],1 (5.0) n (%)
same,"Serious TEAE Chest pain, n (%) of subjects",[1],1 (5.0) n (%)
same,"Serious TEAE Diarrhoea, n (%) of subjects",[1],1 (5.0) n (%)
same,"Serious TEAE Haemorrhage intracranial, n (%) of subjects",[1],0 n (%)
same,"Serious TEAE Lethargy, n (%) of subjects",[1],0 n (%)
same,"Serious TEAE Mitral valve incompetence, n (%) of subjects",[1],1 (5.0) n (%)
same,"Serious TEAE Myocardial infarction, n (%) of subjects",[1],0 n (%)
same,"Serious TEAE Nausea, n (%) of subjects",[1],0 n (%)
same,"Serious TEAE Pelvic venous thrombosis, n (%) of subjects",[1],0 n (%)
same,"Serious TEAE Platelet count decreased, n (%) of subjects",[1],0 n (%)
same,"Serious TEAE Pneumonia, n (%) of subjects",[1],0 n (%)
same,"Serious TEAE Pyrexia, n (%) of subjects",[1],1 (5.0) n (%)
same,"Serious TEAE Thrombocytopenia, n (%) of subjects",[1],0 n (%)
same,"Serious TEAE Transient ischaemic attack, n (%) of subjects",[1],0 n (%)
same,"Serious TEAE Vomiting, n (%) of subjects",[1],1 (5.0) n (%)
same,"Serious TEAE, % of subjects",[1],(5.0) %
same,"Serious TEAE, SOC Blood and lymphatic system disorders, n (%) of subjects",[1],0 n (%)
same,"Serious TEAE, SOC Cardiac disorders, n (%) of subjects",[1],1 (5.0) n (%)
same,"Serious TEAE, SOC Gastrointestinal disorders, n (%) of subjects",[1],1 (5.0) n (%)
same,"Serious TEAE, SOC General disorders and administration site conditions, n (%) of subjects",[1],1 (5.0) n (%)
same,"Serious TEAE, SOC Infections and infestations, n (%) of subjects",[1],0 n (%)
same,"Serious TEAE, SOC Investigations, n (%) of subjects",[1],0 n (%)
same,"Serious TEAE, SOC Nervous system disorders, n (%) of subjects",[1],1 (5.0) n (%)
same,"Serious TEAE, SOC Vascular disorders, n (%) of subjects",[1],0 n (%)
same,"Serious TEAE, n of subjects",[1],1
same,"Serious treatment-related TEAEs, n of subjects",[1],0
same,"Severe (grade 3-4) TEAEs, % of subjects",[1],(35.0) %
same,"Severe (grade 3-4) TEAEs, n of subjects",[1],7
same,"Somnolence, % of subjects",[1],(10.0) %
same,"Somnolence, n of subjects",[1],2
same,"Suspected drug-related AEs, % of subjects",[1],(65.0) %
same,"Suspected drug-related AEs, n of subjects",[1],13
same,"Upper respiratory tract infection, % of subjects",[1],(15.0) %
same,"Upper respiratory tract infection, n of subjects",[1],3
same,"Vomiting, % of subjects",[1],(20.0) %
same,"Vomiting, n of subjects",[1],4
same,"Withdrawal due to TEAE, % of subjects",[1],(10.0) %
same,"Withdrawal due to TEAE, n of subjects",[1],2
same,treated subjects with thromboembolic events,both studies combined,approximately 6%
same,subjects with thromboembolic events,"both studies combined, doses of 10 mg/day or higher",4 subjects
same,subjects with TEAE possibly or probably treatment related,combined studies,64.1%
same,subjects with TEAEs that led to interruption of study treatment,combined studies,8 subjects
same,subjects with TEAEs that led to premature discontinuation of study treatment,combined studies,Seven
same,subjects who experienced one or more TEAEs,"combined studies, 64 subjects",96.9%
same,Epistaxis,[2],23.4%
same,Fatigue,[2],34.4%
same,Headache,[2],32.8%
same,Vomiting,[2],10.9%
same,arthralgia,[2],14.1%
same,contusion,[2],18.8%
same,diarrhea,[2],14.1%
same,gingival bleeding,[2],10.9%
same,serious TEAEs,"combined studies, all",16 cases
same,subjects reporting serious TEAEs,"combined studies, all",Five
same,deaths,during the study,No deaths occurred
same,neoplastic events of interest,during this study,Three
same,serious TEAEs,lower ⅓ dose level group,1 cases
same,subjects reporting serious TEAEs,lower ⅓ dose level group,1 subjects
same,serious TEAEs,middle ⅓ dose level group,9 cases
same,subjects reporting serious TEAEs,middle ⅓ dose level group,3 subjects
same,serum ALT,[3],210 U/L
same,serum AST,[3],143 U/L
same,ALT,[4],421 U/L
same,AST,[4],431 U/L
same,serious TEAEs,upper ⅓ dose level group,6 cases
same,subjects reporting serious TEAEs,upper ⅓ dose level group,1 subjects

# Source: patent publication US20110166112A1, “METHOD FOR STIMULATING PLATELET PRODUCTION” (Eisai, Inc., priority 2009, published 2011)
